# From patent publication US10166270B2, “Composition and method for affecting cytokines and NF-κB” (priority 2004, dated 2019)
# Tests used:
# [1] = system: carrageenan-induced paw edema; assay: Carrageenan-induced paw edema; format: in vivo, rat
# From the text: The carrageenan-induced paw edema assay was used as an in vivo indicator of the anti-inflammatory effects of the phyto-percolate. Carrageenan induces local inflammation and edema when injected into the paw pad of a rat (Di Rosa et al., 1971). The development of paw edema is believed to be biphasic (Vinegar et al., 1969). The initial phase is attributable to the local release of histamine and serotonin (Crunkhon et al., 1971) and the second phase is caused by prostaglandin release as a result of COX activation. […] Each treatment group is compared to control.
# IL-17A = assay: ELISA of cytokine secretion by PBMC: IL-17A; format: cell-based, human; conditions: PMA added to cultured PBMC
# Description: (§1) According to this exemplary embodiment, phyto-percolate and the flow-through/F4 were tested as they appeared in their original concentrations right off the columns, only diluted 1:20 and 1:100 as described herein. The culture of peripheral blood mononuclear cells (“PBMC”) is prepared with two vials of frozen PBMCs that were obtained from normal healthy human subjects by a commercial vendor and were added to 2×10 ml medium and centrifuged. PBMCs were resuspended and cultured in RPMI1640/5% FBS for 24 h. (1 vial of frozen cells in 11 ml medium).
# (§2) Treatment agents for this exemplary method comprise three agents: unseparated phyto-percolate (‘PAZ’), fraction 3 (‘F3’), fraction 4 (‘F4’). Treatment concentration for each was 1:20 & 1:100. […]
# (§3) According to this exemplary embodiment, seeding, treatment, and detection is accomplished by the following steps. Two dishes of PBMCs were combined and the small amount of PBMCs was stained with 0.4% Trypan blue and the cell number of PBMCs was counted using known techniques.
# (§4) In this embodiment, an enzyme linked immunosorbent assay (“ELISA”) analysis of inflammatory cytokine secretion, a protocol provided in a commercial kit for the parallel quantification of the production of human cytokines was employed. […]
# IFN-γ = assay: ELISA of cytokine secretion by PBMC: IFN-γ; format: cell-based, human; conditions: PMA added to cultured PBMC
# Description: as §1, §2, §3, §4
# IL-2 = assay: ELISA of cytokine secretion by PBMC: IL-2; format: cell-based, human; conditions: PMA added to cultured PBMC (with ionomycin)
# Description: as §1, §2, §3, §4
# GM-CSF = assay: ELISA of cytokine secretion by PBMC: GM-CSF; format: cell-based, human; conditions: PMA added to cultured PBMC
# Description: as §1, §2, §3, §4
# TNF-α = assay: ELISA of cytokine secretion by PBMC: TNF-α; format: cell-based, human; conditions: PMA added to cultured PBMC
# Description: as §1, §2, §3, §4
# human COX-2 = target: T1, human COX-2 (Homo sapiens, UniProt P35354); assay: in vitro COX-2 inhibition (arachidonic acid to PGE2, EIA); format: biochemical; conditions: read-out: % COX-2 Inhibition (Individual assay values)
# T1 construct: host or cells: Sf21 insect cells
# T1 sequence (P35354 18-604): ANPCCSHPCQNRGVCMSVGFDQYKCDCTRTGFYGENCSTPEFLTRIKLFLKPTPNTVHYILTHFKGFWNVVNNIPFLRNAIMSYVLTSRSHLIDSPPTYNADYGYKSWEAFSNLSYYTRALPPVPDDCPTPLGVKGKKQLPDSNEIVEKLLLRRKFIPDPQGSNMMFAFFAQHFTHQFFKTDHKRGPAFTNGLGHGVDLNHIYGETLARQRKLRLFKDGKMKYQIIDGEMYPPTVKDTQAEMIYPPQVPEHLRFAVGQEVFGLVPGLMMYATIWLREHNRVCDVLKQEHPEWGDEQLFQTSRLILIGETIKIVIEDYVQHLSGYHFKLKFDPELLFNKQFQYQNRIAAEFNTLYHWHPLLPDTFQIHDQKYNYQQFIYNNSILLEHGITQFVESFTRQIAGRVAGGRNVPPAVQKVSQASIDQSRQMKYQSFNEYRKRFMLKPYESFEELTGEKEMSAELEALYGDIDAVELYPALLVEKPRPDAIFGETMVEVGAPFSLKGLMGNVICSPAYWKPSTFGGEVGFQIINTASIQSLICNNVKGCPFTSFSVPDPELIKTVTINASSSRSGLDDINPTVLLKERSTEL
# Description: Three separate preparations of the phyto-percolate were screened, using an in vitro assay, for COX-2 inhibition. Riendeau et al., Can. J. Physiol. […] Briefly, this assay measured to conversion of 0.3 μM arachidonic acid to PGE2 by human recombinant insect Sf21 cells expression human COX-2. The incubation buffer contained 100 mM Tris-HCl (pH 7.7), 1 mM glutathione, 1 μM hematin, and 500 μM phenol. PGE2 was quantified using an enzyme-linked immunoassay (EIA).
# Sample 1 was a sample of diluted phyto-percolate concentrated approximately 100-fold by drying under N2. Sample 2 was prepared by drying a 4800 μl sample of diluted phyto-percolate under N2 and reconstituting it in 96 μl of ddH2O just prior to assay. Sample 3 was prepared by lyophilizing a 4800 μl sample of diluted phyto-percolate and reconstituting it in 96 μl of ddH2O just prior to assay. The concentrations of phyto-percolate used, 100×, 10×, and IX, refer to 10 μl, 1 μl, and 0.1 μl of sample, respectively, in a final assay volume of 100 μl. […] Each sample was assayed in at least three concentrations and the assays were performed in duplicate.
# NF-κB = assay: EMSA of DNA-binding activity of NF-κB in cultured PBMC; format: cell-based, human; conditions: TNF-α (50 ng/ml) added one hour before harvesting
# Description: as §1
# Treatment agents for this exemplary method comprise three agents: unseparated phyto-percolate (‘PAZ’), fraction 3 (‘F3’), fraction 4 (‘F4’). Treatment concentration for each was 1:20 & 1:100. An exemplary sample preparation method for each agent by dilution is as follows: First, a 1:10 dilution is prepared by combining 0.7 ml agent (either PAZ, F3 or F4)+6.3 ml RPMI1640/5% FBS to obtain a total volume of 7 ml of a 1:10 solution. […]
# Analysis of the effect of phyto-percolate or fractions isolated therefrom on the DNA-binding activity of NF-κB in the nuclear protein fractions of the cultured PBMC was determined as follows in this exemplary embodiment: approximately 18.26 mL of suspended PBMC were added to approximately 18 mL of culture medium and 2 mL of this cell suspension (2,718,000 cells in 2 mL) were seeded into each 60 mm culture dish. […]
# [2] = 0 hours, oral dose 30 min before carrageenan, n=6
Compound,"paw volume, % change from control ([1]; 0 hours)","Mean paw volume ± SD [1, 2] [mL]",Mean paw volume ± SD ([1]; 2 hours) [mL],"paw volume, % change from control ([1]; 2 hours)",Mean paw volume ± SD ([1]; 4 hours) [mL],"paw volume, % change from control ([1]; 4 hours)",Mean paw volume ± SD ([1]; 6 hours) [mL],"paw volume, % change from control ([1]; 6 hours)",Mean paw volume ± SD ([1]; 8 hours) [mL],"paw volume, % change from control ([1]; 8 hours)",Mean paw volume ± SD ([1]; 20 hours) [mL],"paw volume, % change from control ([1]; 20 hours)",further results
"CC(=O)Oc1ccccc1C(=O)O [Aspirin, aspirin]",(1%),1.25 ± 0.08,2.22 ± 0.28,(4%),2.07 ± 0.23,(−10%),1.92 ± 0.18,(−20%),1.80 ± 0.18,(−25%),1.42 ± 0.16,(−23%),–
"COc1ccc2c(c1)c(CC(=O)O)c(C)n2C(=O)c1ccc(Cl)cc1 [Indomethacin, indomethacin]",(1%),1.25 ± 0.05,2.25 ± 0.23,(7%),2.18 ± 0.22,(1%),2.00 ± 0.22,(−12%),1.83 ± 0.23,(−22%),1.37 ± 0.10,(−38%),–
"CCCCCCCCCCCCCC(=O)O[C@@H]1[C@@H](C)[C@@]2(O)[C@@H](C=C(CO)C[C@]3(O)C(=O)C(C)=C[C@@H]23)[C@@H]2C(C)(C)[C@]12OC(C)=O [PMA, phorbol myristate acetate]",–,–,–,–,–,–,–,–,–,–,–,–,"secretion of IL-17A (IL-17A): approximately 3 pg/100,000 cells; secretion of IFN-γ (IFN-γ): approximately 70 pg/100,000 cells; secretion of IL-2 (IL-2): approximately 125 pg/100,000 cells; secretion of GM-CSF (GM-CSF): approximately 50 pg/100,000 cells; secretion of TNF-α (TNF-α): approximately 50 pg/100,000 cells"
CS(=O)(=O)c1ccc(C2=C(c3ccccc3)C(=O)OC2)cc1 [rofecoxib],–,–,–,–,–,–,–,–,–,–,–,–,inhibition at 0.01 µM (human COX-2): 11%; inhibition at 0.03 µM (human COX-2): 16%; inhibition at 0.1 µM (human COX-2): 33%; inhibition at 0.3 µM (human COX-2): 55%; inhibition at 1 µM (human COX-2): 88%
TNF-α,–,–,–,–,–,–,–,–,–,–,–,–,"DNA-binding activity of NF-κB, relative level (control = 1.0) (NF-κB): ~2.0"
